In ChEMBL document CHEMBL3132769, “Fragment growing to retain or alter the selectivity of anchored kinase hinge-binding fragments” (Medchemcomm, 2014):

What was measured:
[1] = molecular target: Serine/threonine-protein kinase pim-1 (Homo sapiens) (UniProt P11309); experiment: Inhibition of human full length PIM1 expressed in baculovirus assessed as substrate phosphorylation using fluorescence-labelled peptides as substrate at 0.2 uM after 90 mins by microfluidic peptide phosphorylation assay
[2] = molecular target: Tyrosine-protein kinase Lyn (Homo sapiens) (UniProt P07948); experiment: Inhibition of human full length LYN expressed in baculovirus assessed as substrate phosphorylation using fluorescence-labelled peptides as substrate at 0.2 uM after 90 mins by microfluidic peptide phosphorylation assay
Sequence of Tyrosine-protein kinase Lyn (Homo sapiens) (P07948 2-512 limits assumed): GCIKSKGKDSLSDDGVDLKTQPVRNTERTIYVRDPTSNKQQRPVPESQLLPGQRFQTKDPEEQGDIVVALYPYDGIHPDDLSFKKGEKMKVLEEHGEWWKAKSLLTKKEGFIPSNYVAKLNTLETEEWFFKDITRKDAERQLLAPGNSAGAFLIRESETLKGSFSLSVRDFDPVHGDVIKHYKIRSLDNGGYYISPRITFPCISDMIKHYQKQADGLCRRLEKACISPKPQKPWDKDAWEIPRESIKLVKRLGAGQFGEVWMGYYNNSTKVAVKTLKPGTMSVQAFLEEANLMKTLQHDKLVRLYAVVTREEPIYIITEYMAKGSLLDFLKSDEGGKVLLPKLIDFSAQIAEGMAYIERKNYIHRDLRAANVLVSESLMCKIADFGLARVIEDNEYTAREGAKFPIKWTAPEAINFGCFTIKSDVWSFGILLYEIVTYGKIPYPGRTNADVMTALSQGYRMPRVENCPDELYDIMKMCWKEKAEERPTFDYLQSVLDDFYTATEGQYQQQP

[3] = molecular target: Protein kinase C theta type (Homo sapiens) (UniProt Q04759); experiment: Inhibition of human truncated PKC theta expressed in baculovirus assessed as substrate phosphorylation using fluorescence-labelled peptides as substrate at 9 uM after 90 mins by microfluidic peptide phosphorylation assay
Sequence of Protein kinase C theta type (Homo sapiens) (Q04759 whole entry, looked up, the tested form may be a part): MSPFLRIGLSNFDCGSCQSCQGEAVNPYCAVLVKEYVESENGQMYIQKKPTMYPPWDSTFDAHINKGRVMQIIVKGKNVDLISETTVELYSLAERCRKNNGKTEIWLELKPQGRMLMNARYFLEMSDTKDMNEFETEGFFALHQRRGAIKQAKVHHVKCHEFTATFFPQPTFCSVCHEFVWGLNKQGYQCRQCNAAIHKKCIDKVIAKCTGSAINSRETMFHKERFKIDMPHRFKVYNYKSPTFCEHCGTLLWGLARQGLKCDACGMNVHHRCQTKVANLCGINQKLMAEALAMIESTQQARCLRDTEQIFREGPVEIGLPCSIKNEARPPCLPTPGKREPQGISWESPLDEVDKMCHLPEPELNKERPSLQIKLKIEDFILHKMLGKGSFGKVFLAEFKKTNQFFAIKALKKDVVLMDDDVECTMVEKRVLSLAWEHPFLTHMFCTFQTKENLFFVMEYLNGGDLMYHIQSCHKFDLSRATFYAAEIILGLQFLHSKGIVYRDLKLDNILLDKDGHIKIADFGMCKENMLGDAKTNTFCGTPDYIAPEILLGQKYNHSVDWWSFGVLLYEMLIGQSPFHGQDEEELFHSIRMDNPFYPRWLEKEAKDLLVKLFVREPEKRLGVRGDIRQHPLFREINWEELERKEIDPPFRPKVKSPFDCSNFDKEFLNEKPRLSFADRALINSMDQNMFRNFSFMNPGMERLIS

[4] = molecular target: T1, Aurora kinase C (Homo sapiens) (UniProt Q9UQB9); experiment: Inhibition of human full length AurC expressed in baculovirus assessed as substrate phosphorylation using fluorescence-labelled peptides as substrate at […] after 90 mins by microfluidic peptide phosphorylation assay
T1 sequence (whole entry): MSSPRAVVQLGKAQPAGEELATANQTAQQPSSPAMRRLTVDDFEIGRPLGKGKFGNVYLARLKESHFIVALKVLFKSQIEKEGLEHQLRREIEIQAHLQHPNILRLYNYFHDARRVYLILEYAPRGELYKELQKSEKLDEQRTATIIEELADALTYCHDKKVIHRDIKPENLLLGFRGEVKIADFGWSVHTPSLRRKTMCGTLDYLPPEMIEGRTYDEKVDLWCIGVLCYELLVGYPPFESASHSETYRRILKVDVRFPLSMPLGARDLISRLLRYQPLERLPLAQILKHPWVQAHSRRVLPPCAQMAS

[5] = molecular target: T2, Testis-specific serine/threonine-protein kinase 1 (Homo sapiens) (UniProt Q9BXA7); experiment: Inhibition of human full length TSSK1 expressed in baculovirus assessed as substrate phosphorylation using fluorescence-labelled peptides as substrate at 0.06 uM after 90 mins by microfluidic peptide phosphorylation assay
T2 sequence (whole entry): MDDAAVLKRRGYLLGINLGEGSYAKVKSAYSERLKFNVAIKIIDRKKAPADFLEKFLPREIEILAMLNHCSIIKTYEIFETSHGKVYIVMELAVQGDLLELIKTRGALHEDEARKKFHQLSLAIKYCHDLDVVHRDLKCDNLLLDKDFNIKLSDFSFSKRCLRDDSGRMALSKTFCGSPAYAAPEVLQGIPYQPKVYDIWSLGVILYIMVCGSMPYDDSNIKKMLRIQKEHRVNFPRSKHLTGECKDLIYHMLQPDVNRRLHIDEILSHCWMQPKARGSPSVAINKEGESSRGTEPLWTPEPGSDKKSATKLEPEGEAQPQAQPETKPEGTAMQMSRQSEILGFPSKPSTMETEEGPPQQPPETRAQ

[6] = molecular target: Vascular endothelial growth factor receptor 2 (Homo sapiens) (UniProt P35968); experiment: Inhibition of human KDR cytoplasmic domain expressed in baculovirus assessed as substrate phosphorylation using fluorescence-labelled peptides as substrate at 0.06 uM after 90 mins by microfluidic peptide phosphorylation assay
Sequence of Vascular endothelial growth factor receptor 2 (Homo sapiens) (P35968 whole entry, the tested form may be a part): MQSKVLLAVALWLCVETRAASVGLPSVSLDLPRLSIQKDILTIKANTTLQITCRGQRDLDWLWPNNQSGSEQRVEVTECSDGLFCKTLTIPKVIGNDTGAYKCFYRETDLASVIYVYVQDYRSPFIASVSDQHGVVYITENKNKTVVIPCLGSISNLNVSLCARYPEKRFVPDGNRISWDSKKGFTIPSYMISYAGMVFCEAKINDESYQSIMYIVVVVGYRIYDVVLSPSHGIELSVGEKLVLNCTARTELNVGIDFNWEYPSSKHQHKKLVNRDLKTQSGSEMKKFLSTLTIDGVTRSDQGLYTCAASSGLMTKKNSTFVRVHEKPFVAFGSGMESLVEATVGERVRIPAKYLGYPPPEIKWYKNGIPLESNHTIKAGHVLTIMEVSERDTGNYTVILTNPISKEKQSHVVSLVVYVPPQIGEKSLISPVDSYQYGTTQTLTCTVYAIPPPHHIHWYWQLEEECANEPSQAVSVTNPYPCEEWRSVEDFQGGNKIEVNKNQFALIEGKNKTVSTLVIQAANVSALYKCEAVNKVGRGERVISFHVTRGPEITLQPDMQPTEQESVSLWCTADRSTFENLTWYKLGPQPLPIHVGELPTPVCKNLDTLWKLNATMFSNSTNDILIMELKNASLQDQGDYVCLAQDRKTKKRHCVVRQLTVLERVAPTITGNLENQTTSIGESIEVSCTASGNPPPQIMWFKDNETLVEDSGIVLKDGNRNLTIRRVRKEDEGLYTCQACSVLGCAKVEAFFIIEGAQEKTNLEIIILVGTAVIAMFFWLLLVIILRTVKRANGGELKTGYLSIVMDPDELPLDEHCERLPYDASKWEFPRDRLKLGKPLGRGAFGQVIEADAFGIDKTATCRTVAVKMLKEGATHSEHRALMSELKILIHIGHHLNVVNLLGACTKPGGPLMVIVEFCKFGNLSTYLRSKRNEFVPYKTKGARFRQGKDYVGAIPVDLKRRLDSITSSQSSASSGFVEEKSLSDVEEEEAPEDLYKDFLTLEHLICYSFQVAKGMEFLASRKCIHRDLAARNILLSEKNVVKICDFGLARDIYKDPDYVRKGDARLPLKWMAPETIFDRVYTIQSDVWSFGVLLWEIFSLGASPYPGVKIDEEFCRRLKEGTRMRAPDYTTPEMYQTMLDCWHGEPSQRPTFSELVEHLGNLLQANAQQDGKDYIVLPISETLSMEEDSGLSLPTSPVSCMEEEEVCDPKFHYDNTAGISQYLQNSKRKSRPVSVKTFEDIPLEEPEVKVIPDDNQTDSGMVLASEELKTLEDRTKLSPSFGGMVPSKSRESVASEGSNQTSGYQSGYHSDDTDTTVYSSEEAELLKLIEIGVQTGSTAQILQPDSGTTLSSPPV

[7] = molecular target: Protein kinase C theta type (Homo sapiens) (UniProt Q04759); experiment: Inhibition of human truncated PKC theta expressed in baculovirus assessed as substrate phosphorylation using fluorescence-labelled peptides as substrate at 8 uM after 90 mins by microfluidic peptide phosphorylation assay
[8] = molecular target: Cyclin-dependent kinase 2 (Homo sapiens) (UniProt P24941); experiment: Inhibition of human full length CDK2 expressed in baculovirus assessed as substrate phosphorylation using fluorescence-labelled peptides as substrate at 8 uM after 90 mins by microfluidic peptide phosphorylation assay
[9] = molecular target: Tyrosine-protein kinase Lck (Homo sapiens) (UniProt P06239); experiment: Inhibition of human full length LCK expressed in baculovirus assessed as substrate phosphorylation using fluorescence-labelled peptides as substrate at 1000 uM after 90 mins by microfluidic peptide phosphorylation assay
Sequence of Tyrosine-protein kinase Lck (Homo sapiens) (P06239 2-509 limits assumed): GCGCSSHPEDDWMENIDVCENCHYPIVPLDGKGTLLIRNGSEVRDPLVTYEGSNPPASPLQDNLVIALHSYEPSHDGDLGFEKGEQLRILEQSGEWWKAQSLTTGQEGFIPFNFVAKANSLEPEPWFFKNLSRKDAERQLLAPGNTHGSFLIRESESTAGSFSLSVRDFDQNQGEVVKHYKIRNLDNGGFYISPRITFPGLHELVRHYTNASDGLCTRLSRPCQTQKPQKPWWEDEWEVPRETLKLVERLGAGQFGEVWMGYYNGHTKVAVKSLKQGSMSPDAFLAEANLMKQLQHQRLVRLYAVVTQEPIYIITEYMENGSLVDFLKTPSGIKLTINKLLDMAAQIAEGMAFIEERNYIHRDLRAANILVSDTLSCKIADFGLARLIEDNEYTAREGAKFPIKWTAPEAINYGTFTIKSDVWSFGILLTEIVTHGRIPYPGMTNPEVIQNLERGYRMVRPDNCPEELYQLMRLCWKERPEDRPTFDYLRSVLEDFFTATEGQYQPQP

[10] = molecular target: T3, Mitogen-activated protein kinase 12 (Homo sapiens) (UniProt P53778); experiment: Inhibition of human full length p38 gamma expressed in Escherichia coli cell assessed as substrate phosphorylation using fluorescence-labelled peptides as substrate at 1000 uM after 90 mins by microfluidic peptide phosphorylation assay
T3 sequence (whole entry): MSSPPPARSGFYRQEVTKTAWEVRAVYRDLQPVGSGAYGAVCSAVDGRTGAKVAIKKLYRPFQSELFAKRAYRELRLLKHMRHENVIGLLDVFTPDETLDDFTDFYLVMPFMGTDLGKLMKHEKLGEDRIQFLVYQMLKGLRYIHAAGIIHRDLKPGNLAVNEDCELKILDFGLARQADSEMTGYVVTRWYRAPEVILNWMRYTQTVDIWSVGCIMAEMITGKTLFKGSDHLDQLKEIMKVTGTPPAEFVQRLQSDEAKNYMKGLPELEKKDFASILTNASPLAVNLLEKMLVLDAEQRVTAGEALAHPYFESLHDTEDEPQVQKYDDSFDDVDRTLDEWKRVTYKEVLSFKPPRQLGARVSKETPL

[11] = molecular target: T4, Serine/threonine-protein kinase D2 (Homo sapiens) (UniProt Q9BZL6); experiment: Inhibition of human full length PKD2 expressed in baculovirus assessed as substrate phosphorylation using fluorescence-labelled peptides as substrate at 1000 uM after 90 mins by microfluidic peptide phosphorylation assay
T4 sequence (whole entry): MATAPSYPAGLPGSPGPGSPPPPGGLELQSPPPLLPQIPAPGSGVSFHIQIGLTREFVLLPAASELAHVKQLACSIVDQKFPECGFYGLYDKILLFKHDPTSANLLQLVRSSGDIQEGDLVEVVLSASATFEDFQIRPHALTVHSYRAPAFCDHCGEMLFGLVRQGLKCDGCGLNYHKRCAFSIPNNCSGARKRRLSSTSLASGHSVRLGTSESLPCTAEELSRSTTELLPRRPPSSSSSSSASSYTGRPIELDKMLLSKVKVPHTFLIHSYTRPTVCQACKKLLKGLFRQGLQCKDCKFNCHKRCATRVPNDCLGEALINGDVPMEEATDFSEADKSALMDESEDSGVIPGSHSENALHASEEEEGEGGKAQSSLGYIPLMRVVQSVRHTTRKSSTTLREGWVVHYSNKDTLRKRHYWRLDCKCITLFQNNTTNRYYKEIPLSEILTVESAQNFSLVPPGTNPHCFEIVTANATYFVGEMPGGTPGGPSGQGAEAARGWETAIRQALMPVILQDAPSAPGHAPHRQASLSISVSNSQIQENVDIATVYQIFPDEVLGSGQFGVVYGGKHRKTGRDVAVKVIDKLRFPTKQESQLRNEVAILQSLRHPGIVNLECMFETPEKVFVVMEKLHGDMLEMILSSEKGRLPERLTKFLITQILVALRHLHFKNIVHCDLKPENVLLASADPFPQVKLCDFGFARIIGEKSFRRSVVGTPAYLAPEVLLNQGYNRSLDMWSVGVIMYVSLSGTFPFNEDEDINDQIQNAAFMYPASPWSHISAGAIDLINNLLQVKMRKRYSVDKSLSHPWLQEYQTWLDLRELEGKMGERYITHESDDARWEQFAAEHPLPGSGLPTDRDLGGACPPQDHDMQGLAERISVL

Sequence of Serine/threonine-protein kinase pim-1 (Homo sapiens) (P11309 whole entry, looked up): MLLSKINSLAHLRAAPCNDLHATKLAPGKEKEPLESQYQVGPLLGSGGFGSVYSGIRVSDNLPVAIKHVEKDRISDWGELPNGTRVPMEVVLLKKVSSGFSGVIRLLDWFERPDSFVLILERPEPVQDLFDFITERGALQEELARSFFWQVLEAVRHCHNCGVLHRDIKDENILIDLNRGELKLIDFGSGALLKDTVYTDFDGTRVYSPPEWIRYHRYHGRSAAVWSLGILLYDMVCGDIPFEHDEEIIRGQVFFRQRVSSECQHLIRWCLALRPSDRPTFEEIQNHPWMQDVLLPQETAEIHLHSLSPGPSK

SMILES: Clc1ccc(C2(c3ccc(-c4ncnc5[nH]cnc45)cc3)CCNCC2)cc1
- inhibition [1]: 0%
- inhibition [2]: 18%

SMILES: NCC1CN(c2ncnc3[nH]c4cnccc4c23)CCO1 (stereo unspecified)
- inhibition [3]: 52.5%

SMILES: COC(=O)c1cnc(Nc2cnc(C#N)cn2)cc1NCC1CCNCC1
- inhibition [4]: 7.5%

SMILES: NC1(Cc2ccc(Cl)cc2)CCN(c2ncnc3[nH]ccc23)CC1
- inhibition [5]: 0%
- inhibition [6]: 0%

SMILES: NCC1CCN(c2ncnc3[nH]ccc23)CC1
- inhibition [7]: 67.5%
- inhibition [8]: 7%

SMILES: c1cnc2[nH]ccc2c1
- inhibition [9]: 29%
- inhibition [10]: 64%
- inhibition [11]: 49.5%
